Data taken from PMC10779170, “Identification of 2,4-Di-tert-butylphenol as a Novel Agonist for Insect Odorant Receptors” (International Journal of Molecular Sciences, 2023).
Values belong to the compound of their own block, whether it stands above or below them.

What was measured:
Assay in all cases: two-electrode voltage clamp, Xenopus oocytes
Type in all cases: cell-based
[1] = biological target: T1, ORCO + Or35a (Drosophila melanogaster, UniProt Q9VNB5); settings: agonist; holding potential -80 mV, ND96 pH 7.4, room temperature
T1 construct: heteromer; cRNAs co-injected in Xenopus laevis oocytes (pGEM-HE); for DTBP, site on Orco; with Odorant receptor 35a
T1 sequence (Q9VNB5 1-486): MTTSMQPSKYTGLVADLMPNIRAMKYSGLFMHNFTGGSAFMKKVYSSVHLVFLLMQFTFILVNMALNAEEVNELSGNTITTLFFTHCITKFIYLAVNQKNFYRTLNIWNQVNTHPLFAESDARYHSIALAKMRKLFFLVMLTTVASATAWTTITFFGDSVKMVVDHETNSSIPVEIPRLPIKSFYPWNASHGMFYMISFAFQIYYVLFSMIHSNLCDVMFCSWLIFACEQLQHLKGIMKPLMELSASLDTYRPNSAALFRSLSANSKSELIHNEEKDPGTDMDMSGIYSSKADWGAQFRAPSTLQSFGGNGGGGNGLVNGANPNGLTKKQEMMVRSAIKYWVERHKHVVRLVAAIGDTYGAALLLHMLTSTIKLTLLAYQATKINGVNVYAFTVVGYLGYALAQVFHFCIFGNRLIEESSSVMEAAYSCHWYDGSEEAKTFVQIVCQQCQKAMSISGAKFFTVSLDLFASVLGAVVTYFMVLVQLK
T1 sequence (Q9V3Q2 1-409 partner): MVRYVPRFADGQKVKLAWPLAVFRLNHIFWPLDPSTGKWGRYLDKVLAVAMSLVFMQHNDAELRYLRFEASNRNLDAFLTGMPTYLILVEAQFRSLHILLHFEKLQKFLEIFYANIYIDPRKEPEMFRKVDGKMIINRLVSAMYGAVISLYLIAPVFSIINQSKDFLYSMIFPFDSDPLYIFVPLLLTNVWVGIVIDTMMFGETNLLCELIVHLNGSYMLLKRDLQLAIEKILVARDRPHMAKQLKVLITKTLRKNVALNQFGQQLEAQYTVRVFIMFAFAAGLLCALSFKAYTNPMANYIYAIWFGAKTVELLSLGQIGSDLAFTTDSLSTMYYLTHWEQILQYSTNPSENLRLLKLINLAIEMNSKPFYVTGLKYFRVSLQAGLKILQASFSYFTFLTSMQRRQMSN
From the text: two-electrode voltage clamp, Xenopus oocytes on ORCO + Or35a

[2] = biological target: T2, ORCO + Or24a (Drosophila melanogaster, UniProt Q9VNB5); settings: agonist; holding potential -80 mV, ND96 pH 7.4, room temperature
T2 construct: heteromer; cRNAs co-injected in Xenopus laevis oocytes (pGEM-HE); for DTBP, site on Orco; with Odorant receptor 24a
T2 sequence (Q9VNB5 1-486): T1 sequence (Q9VNB5 1-486)
T2 sequence (P81913 1-398 partner): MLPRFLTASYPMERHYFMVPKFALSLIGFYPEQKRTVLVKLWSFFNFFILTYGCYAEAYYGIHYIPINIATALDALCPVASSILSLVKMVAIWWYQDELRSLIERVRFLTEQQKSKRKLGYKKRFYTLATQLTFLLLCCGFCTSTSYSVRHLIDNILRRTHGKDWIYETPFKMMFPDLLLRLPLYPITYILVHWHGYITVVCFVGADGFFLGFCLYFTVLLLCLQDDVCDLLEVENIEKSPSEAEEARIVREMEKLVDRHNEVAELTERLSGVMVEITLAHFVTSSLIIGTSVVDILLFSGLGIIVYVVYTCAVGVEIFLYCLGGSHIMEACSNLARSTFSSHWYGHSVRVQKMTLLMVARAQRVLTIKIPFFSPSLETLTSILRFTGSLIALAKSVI
From the text: two-electrode voltage clamp, Xenopus oocytes on ORCO + Or24a

[3] = biological target: T3, Orco homomeric receptor (Drosophila melanogaster, UniProt Q9VNB5); settings: agonist; holding potential -80 mV, ND96 pH 7.4, room temperature
T3 construct: synthesised cDNA in pGEM-HE, cRNA injected in Xenopus laevis oocytes; homotetramer
T3 sequence (Q9VNB5 1-486): T1 sequence (Q9VNB5 1-486)

[4] = biological target: T4, ORCO + Or1a (Drosophila melanogaster, UniProt Q9VNB5); settings: agonist; holding potential -80 mV, ND96 pH 7.4, room temperature; unit inferred, μM from text for the ORCO row
T4 construct: heteromer; cRNAs co-injected in Xenopus laevis oocytes (pGEM-HE); for DTBP, site on Orco; with Odorant receptor 1a
T4 sequence (Q9VNB5 1-486): T1 sequence (Q9VNB5 1-486)
T4 sequence (Q9W5G6 1-392 partner): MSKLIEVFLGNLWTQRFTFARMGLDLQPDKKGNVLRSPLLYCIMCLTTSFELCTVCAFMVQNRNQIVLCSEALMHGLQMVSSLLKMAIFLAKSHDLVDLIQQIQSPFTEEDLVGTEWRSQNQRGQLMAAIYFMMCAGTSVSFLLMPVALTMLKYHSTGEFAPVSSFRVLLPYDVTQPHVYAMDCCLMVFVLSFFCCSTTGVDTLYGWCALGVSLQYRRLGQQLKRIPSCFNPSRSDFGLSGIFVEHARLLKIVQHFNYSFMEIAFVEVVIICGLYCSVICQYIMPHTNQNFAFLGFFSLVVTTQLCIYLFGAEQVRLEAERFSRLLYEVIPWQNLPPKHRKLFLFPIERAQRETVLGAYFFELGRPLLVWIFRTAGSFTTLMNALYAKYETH
From the text: two-electrode voltage clamp, Xenopus oocytes on ORCO + Or1a

[5] = biological target: T5, Orco + Or1a (Drosophila melanogaster, UniProt Q9W5G6); settings: agonist; 0.3 μM in Figure 2B; holding potential -80 mV, ND96 pH 7.4
T5 construct: same complex as P2, site on OrX; with Odorant receptor coreceptor
T5 sequence (Q9W5G6 1-392): T4 sequence (Q9W5G6 1-392 partner)
T5 sequence (Q9VNB5 1-486 partner): T1 sequence (Q9VNB5 1-486)

[6] = biological target: T6, Orco + Or35a (Drosophila melanogaster, UniProt Q9V3Q2); settings: agonist; 10 μM in Figure 2D; holding potential -80 mV, ND96 pH 7.4
T6 construct: same complex as P4, site on OrX; with Odorant receptor coreceptor
T6 sequence (Q9V3Q2 1-409): T1 sequence (Q9V3Q2 1-409 partner)
T6 sequence (Q9VNB5 1-486 partner): T1 sequence (Q9VNB5 1-486)

[7] = biological target: T7, Orco + Or24a (Drosophila melanogaster, UniProt P81913); settings: agonist; 0.3 μM in Figure 2C; holding potential -80 mV, ND96 pH 7.4
T7 construct: same complex as P3, site on OrX; with Odorant receptor coreceptor
T7 sequence (P81913 1-398): T2 sequence (P81913 1-398 partner)
T7 sequence (Q9VNB5 1-486 partner): T1 sequence (Q9VNB5 1-486)

EC50 [1]: 38.1 ± 3.8 µM
EC50 [2]: 51 ± 8.2 µM
EC50 [3]: 13.4 ± 3 µM
EC50 [4]: 104 ± 27.7 µM
Compound: CC(C)(C)c1ccc(O)c(C(C)(C)C)c1 [2,4-di-tert-butylphenol]

Compound: CCCCCC(C)=O [2-heptanone]
normalised dose-response curve [5]: illustrate the normalized activation of DTBP and other odorants for each heteromeric receptor

Compound: CCCCC(C)O (stereo not shown) [2-hexanol]
normalised dose-response curve [6]: illustrate the normalized activation of DTBP and other odorants for each heteromeric receptor

Compound: CCCCCCCCO [octanol]
normalised dose-response curve [7]: illustrate the normalized activation of DTBP and other odorants for each heteromeric receptor
